row,melting point,Compound
1,229.7 °C,O=C(Nc1ccc2cccnc2c1)c1cc2ccc(C(F)(F)F)cc2s1
2,156 to 157 °C,"O=C(Nc1ccc2cccnc2c1)c1ccc2cc(Br)ccc2n1 [Example 36, 6-Bromo-quinoline-2-carboxylic acid quinolin-7-ylamide]"
3,296 °C,"O=C(Nc1ccc2cccnc2c1)c1cc2ncc(C(F)(F)F)cc2s1 [Example 6, 6-Trifluoromethyl-thieno[3,2-b]pyridine-2-carboxylic acid quinolin-7-ylamide]"
4,239.5 to 241.5 °C,"O=C(Nc1ccc2cccnc2c1)c1ccc2cc(Br)ccc2c1 [Example 32, 6-Bromo-naphthalene-2-carboxylic acid quinolin-7-ylamide]"

# Source: US7544803B2, “Vanilloid receptor ligands and their use in treatments” (Amgen Inc., priority 2004, dated 2009)
